Data: patent publication US20030018166A1 (priority 2000, published 2003)
Entries after “also recorded” stand apart in the source; their conditions may differ. Like-named read-outs stand apart in the source and are kept apart here.

Legend:
[1] = molecular target: recombinant Icl (isocitrate lyase) (Mycobacterium tuberculosis, UniProt P9WKK7); experiment: biochemical; type: biochemical, M. tuberculosis (CSU93); conditions: for Ki: read-out: inhibition constants; for inhibit the activity to approximately: 5 mM inhibitor concentration
Chain of recombinant Icl (isocitrate lyase) (P9WKK7 whole entry): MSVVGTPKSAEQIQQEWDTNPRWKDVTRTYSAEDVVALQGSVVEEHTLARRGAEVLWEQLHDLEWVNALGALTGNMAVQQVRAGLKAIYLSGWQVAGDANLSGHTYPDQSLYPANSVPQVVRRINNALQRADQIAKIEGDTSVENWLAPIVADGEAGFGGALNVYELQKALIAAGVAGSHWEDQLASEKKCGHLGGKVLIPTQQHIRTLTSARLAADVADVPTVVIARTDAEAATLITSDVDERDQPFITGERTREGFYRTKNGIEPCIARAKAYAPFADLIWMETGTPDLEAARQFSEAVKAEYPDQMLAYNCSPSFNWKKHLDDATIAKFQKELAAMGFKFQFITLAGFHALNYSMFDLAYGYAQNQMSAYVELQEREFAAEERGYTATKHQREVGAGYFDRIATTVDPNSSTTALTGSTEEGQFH

[2] = tested on: wild type M. smegmatis mc^2155; type: cell-based; conditions: discs 30 mM and 60 mM
[3] = tested on: O=C(O)CC(C(=O)O)C(O)C(=O)O; experiment: purified protein, by the assay type

Compound	inhibitory effect on Icl activity [1]	Ki [1] [µM]	further results
O=C(O)[C@H](O)COP(=O)(O)O [3-Phosphoglycerate]	no inhibitory effect	–	–
O=C(O)CC[N+](=O)[O-] [3-nitropropionate]	–	3	effect on growth, inhibition zone around disc ([2]; grown on acetate): restricted to growth on acetate; also recorded: inhibitory; effect on growth, inhibition zone around disc ([2]; grown on glucose): not observed; also recorded: no effect
O=C(O)[C@H](O)[C@@H](O)[C@H](O)[C@H](O)COP(=O)(O)O [6-phosphogluconate]	no inhibitory effect	–	–
C=C(CC(=O)O)C(=O)O [Itaconate]	–	120	–
O=C(O)C(=O)O [Oxalate]	–	–	inhibit the activity to approximately [1]: approximately 50%
O=C(O)C(=O)CBr [bromopyruvate, 3-bromopyruvate]	–	120	effect on growth, inhibition zone around disc ([2]; grown on glucose): no effect
O=C(COP(=O)(O)O)[C@@H](O)[C@H](O)[C@H](O)COP(=O)(O)O [fructose-1,6-bisphosphate]	no inhibitory effect	–	–
C=C1CC(=O)OC1=O [itaconic anhydride]	–	190	–
O=C(O)CC(O)C(=O)O (stereo not shown) [malate]	–	–	inhibit the activity to approximately [1]: approximately 50%
O=C(O)CC(=O)O [malonic acid]	no inhibitory effect	–	–
O=C(O)CCC(=O)O [succinate]	–	–	inhibitory effect on the recombinant enzyme [1]: did not reveal any inhibitory effect
recombinant AceA (isocitrate lyase) (Mycobacterium tuberculosis CDC1551)	–	–	Km ([3]; other: Tricine-HCl buffer at pH 7.5, pH 7.5): 1300 µM
recombinant Icl (isocitrate lyase) (Mycobacterium tuberculosis H37Rv)	–	–	Km ([3]; other: Hanes-Woolf plot): 145 µM
